Results: patent US9526243B2, “Pollination success and seed set in corn hybrid seed production” (priority 2012, dated 2016)

Tests used:
Format in all cases: in vivo, corn (maize, Zea mays)
[1] = system: male parent plant of Hybrid A (corn)
Source text: Hybrid A is a three-way corn hybrid which performs well in rain-fed areas in India. The female parent of this hybrid is a single cross and male parent is an inbred. […] The ear height in female is 94 cm and male plant height (including tassel length) is 190 cm. The ratio of male parent plant height to female parent ear height is 2.02. This is not favorable for pollen dispersal and cross fertilization. A taller male gives a very clear advantage in easy spread of pollen. Further, a height disadvantage is amplified where the female is a single cross and male is inbred, as the robust female parent suppresses male parent growth. […] With less seed yield due to low seed set, seed production may be uneconomical in Hybrid A. Controlled use of Gibberellic Acid as foliar spray for male parent helped increase the plant height and thereby facilitated easier dispersal of pollen for better pollination success.
When GA3 was sprayed on male parent at a given dosage, the last few internodes were elongated and the plant height was increased by 33 cm. The ratio of male parent plant height to female parent ear height increased from 2.02 in control (no GA3 spray) to 2.40 after spray. This spray was done when a minimum of 80% of the plants had the tassel wrapped in two leaves.
A field trial was conducted to study the impact of GA3 on male parent plant height and also seed yield in hybrid seed production. GA3 dose of 10 g (dissolved in 100 ml alcohol) was sprayed in one acre of male plants (25% of area in 3:1 row ratio) when male tassel is wrapped up in two leaves.

[2] = system: Inbred B male plants (corn); experiment: GA3 spray to increase male inbred height, Inbred B (Brazil); settings: for plant height increase: one application before flowering, 365 g GA3 (10% active ingredient) per hectare
Method: (§1) GA3 spray to increase male inbred height was also tested with 2 more inbreds, Inbred B and Inbred C, in Brazil.
Inbred B was sown in two sequential plantings, separated by 80 to 100 heat units. The first planting is referred to as the primary male; the second planting is referred to as the secondary male. The two male plantings were separated in the field by 40 cm; minimum distance from female rows was 70 cm.
(§2) Data were collected after the following treatments: (a) control, (b) GA3: one application, before flowering, when the tassel is enveloped in 2 leaves; (b) GA3: 2 sequential applications, one at V6 stage and 1 application before flowering. The concentration of GA3 used was 365 g of GA3 (10% active ingredient) per hectare (which is approximately equivalent to 40 g of GA3 at 90% active ingredient), and the spray volume was 130 liters/hectare.
(§3) The plot had 5.20 meter length of each row and 60 cm between plots. Ten male plants in sequence for each male row (primary male and secondary male separate) were measured and the average calculation was obtained and replicated 5 times in different plots. Measurements taken were plant height; length of primary rachis of the tassel; number of secondary tassel branches; and visual pollen score where 1=no pollen (sterile), 5=average amount of pollen, and 9=large amount of pollen.

[3] = system: Inbred C male plants (corn); experiment: GA3 spray to increase male inbred height, Inbred C (Brazil)
Method: as §1, §2, §3

[4] = Inbred B, one GA application vs control
[5] = Inbred B, two sequential GA treatments (V6 and before flowering), relative to control, primary and secondary males

Structure (SMILES): C=C1C[C@]23C[C@@]1(O)CC[C@H]2[C@@]12C=C[C@H](O)[C@@](C)(C(=O)O1)[C@H]2[C@@H]3C(=O)O [GA3, gibberellin A3]
- yield improvement ([1]; Hybrid A experimental plot, GA3 treatment vs control): 32%
- hybrid seed yield with GA3 treatment ([1]; Hybrid A experimental plot, control 607 Kg/Acre): 803 Kg/Acre
- negative or deleterious effects on other plant processes ([1]; Hybrid A male parent after GA3 spray): without any negative or deleterious effects
- increase in male parent plant height ([1]; Hybrid A male parent, GA3 10 g sprayed when tassel wrapped in two leaves, vs control (no GA3 spray)): 33 cm
- male parent plant height increase ([1]; Hybrid A male parent, after spraying GA3, from 190 cm): 17%
- male parent plant height after spraying GA3 ([1]; Hybrid A male parent, control 190 cm): 223 cm
- ratio of male parent plant height to female parent ear height after spray ([1]; Hybrid A, after GA3 spray, control 2.02): 2.40
- plant height increase ([2]; Inbred B primary males): about 10 cm
- plant height increase ([2]; Inbred B secondary males): ~15 cm
- height of male parent plants ([2]; Inbred B, GA3 concentration increased to 16 g/1000 m^2 of male plants): increase further
- number of secondary branches on the rachis [2, 4]: did not change significantly
- primary rachis length [2, 4]: did not change significantly
- pollen score ([2]; Inbred B, one GA application vs control, visual score 1-9): did not change significantly
- pollen score [2, 5]: reduced
- size of the main rachis [2, 5]: reduced
- effect of a second application compared with a single application ([3]; 2 sequential applications (V6 and before flowering)): not more favorable than a single application
- number of secondary branches on the rachis ([3]; one GA application vs control): did not change significantly
- primary rachis length ([3]; one GA application vs control): did not change significantly
- pollen score ([3]; one GA application vs control, visual score 1-9): did not change significantly
- plant height increase ([3]; one application of GA3): ~12 cm
